{
  "source": "patent US20260027117A1",
  "about": "“METHODS OF TREATING SMALL CELL LUNG CANCER” (Debiopharm International S.A., priority 2022, published 2026)",
  "key": {"[1]": {"test_system": "NCI-H446 SCLC tumor cells", "test": "NCI-H446 CDX model, tumor growth inhibition", "type": "in vivo, Balb/c nude mice", "conditions": "16 day cycle; for TGI effects compared to vehicle: monotherapy, Compound of formula (I) 30 mg/kg QD 3 consecutive days a week P.O., carboplatin 50 mg/kg QW I.V.", "experimental": "(§1) Female Balb/c nude mice were inoculated subcutaneously with 5×10^6 NCI-H446 SCLC tumor cells. Animals were randomized when tumor volume reached approximately 100-150 mm^3. Animals were treated with vehicle (0.5% methycellulose, 1% Tween 80 P.O. and saline I.V.), Compound of formula (I) formulated as a suspension in 0.5% methycellulose and 1% Tween 80 (30 mg/kg QD, 3 consecutive days a week, P.O.), or Carboplatin (50 mg/kg QW, I.V.) administered over a 16 day cycle, either alone or in combination (5 animals per group). In combination arms, Compound of formula (I) was administered 2 hours prior to chemotherapy. Tumor growth was monitored twice weekly by caliper measurement and tumor volume calculated using the equation V=(L×W×W)/2, where V is tumor volume, L is tumor length (the longest tumor dimension) and W is tumor width (the longest tumor dimension perpendicular to L). During routine monitoring, the animals were checked for any effects of tumor growth and treatments on behavior such as mobility, food and water consumption, body weight gain/loss 3 times a week, eye/hair matting and any other abnormalities. Mortality and observed clinical signs were recorded for individual animals."}, "[2]": {"test": "NCI-H446 CDX model, tolerability (body weight)", "type": "in vivo", "conditions": "in combination with carboplatin 50 mg/kg QW I.V.; 16 day cycle", "experimental": "as §1"}, "NCI-H446 tumor cells": {"test_system": "NCI-H446 tumor cells", "test": "In vitro synergy, CellTiter-Glo viability assay with Bliss synergy method", "type": "cell-based", "conditions": "in combination with carboplatin, 72 hours, 9 doses, 0-10 uM and carboplatin 0-300 uM, Bliss score >5 demonstrates synergy", "experimental": "NCI-H446 tumor cells were plated at a density of 5000 cells/90 ul in 96 well plates. Cells were treated with Compound of formula (I) and/or carboplatin, either alone or in combination with 9 different doses (3-fold serial dilutions starting at 10 uM for Compound of formula (I) and 300 uM for carboplatin) for 72 hours."}, "SCLC organoids": {"test_system": "SCLC organoids", "test": "SCLC organoid models, Cell Titer Glow 3D viability and Bliss synergy", "type": "cell-based", "conditions": "for bliss synergy score: vs carboplatin/etoposide (5:1 ratio) as a single treatment", "experimental": "SCLC organoids from 16 models were prepared as follows: SCLC organoid models were expanded in 6-well plates, each well containing 2 ml of organoid medium. On the day of organoid seeding 20 μL 100× Dispase solution was added to each well and the plates were incubated at 37° C. for 30 min. Organoids were passed through a pre-wet 100 μm filter into a 50 ml plastic tube and subsequently further filtered through a wet 20 μm filter. Organoids were resuspended in culture media and counted. Matrigel was added to a final concentration of 5% v/v and 40 μL of cell suspensions add to each well of a 384-well plate by Multidrop dispenser.\nThe treatments tested for each organoid model were as follows: • (a) Compound of Formula (I) in monotherapy, • (b) carboplatin and etoposide (in a 5:1 ratio, considered as a single treatment), or • (c) Compound of Formula (I) in combination with carboplatin and etoposide, using the following concentrations in a matrix format: compound of Formula (I) in 6 concentrations from 0.047 to 1.5 μM, carboplatin in 6 concentrations from 0.156 to 5 μM, and etoposide in 6 concentrations from 0.031 to 1 μM)). Thus, for the carboplatin and etoposide treatment (considered as a single treatment in this experiment), the lowest concentration of carboplatin was combined with the lowest concentration of etoposide in a 5:1 ratio, the 2nd lowest doses of both reagents were combined, etc., while maintaining the 5:1 ratio. Then, each of these combinations were used either alone (carboplatin/etoposide treatment) or in further combination with each concentration of Compound of Formula (I).\nThe screening plates were incubated with treatments for 5 days. All treatments were performed in technical triplicates and biological replicates.\nPlates were assayed for luminescent Cell Titer Glow (CTG) signal by adding 40 μL of CTG 3D per well by Multidrop dispenser, mixing for 5 mins and incubating for 30 min at room temperature in the dark. Luminescence signal was then measured on Envision plate reader.\nThe surviving and inhibition rates were calculated as follows for each treatment: […]\nFor synergy calculations and creation of heatmaps, the Bliss independence model was used on synergyfinder.org (Zheng, S.; Wang, W.; Aldahdooh, J.; Malyutina, A.; Shadbahr, T.; Tanoli Z; Pessia, A.; Jing, T. SynergyFinder Plus: Toward Better Interpretation and Annotation of Drug Combination Screening Datasets. Genomics, Proteomics & Bioinformatics 2022, in press. doi:10.1016/j.gpb.2022.01.004) considering carboplatin/etoposide as a single treatment vs Compound of Formula (I). 9 out of 16 models had bliss synergy scores >5 between Compound of Formula (I) and the carboplatin/etoposide treatment. […]"}, "[3]": {"test": "NCI-H1048 CDX model, tolerability (body weight)", "type": "in vivo", "experimental": "(§2) Female Balb/c nude mice were inoculated subcutaneously with 5×10^6 NCI-H1048 SCLC tumor cells. Animals were randomized when tumor volume reached approximately 100-150 mm^3. Animals were treated with vehicle (0.5% methycellulose, 1% Tween 80 P.O. and saline I.V.), Compound of formula (I) formulated as a suspension in 0.5% methycellulose and 1% Tween 80 (30 mg/kg QD, P.O.), Carboplatin (50 mg/kg QW, I.V.) or etoposide (25 mg/kg or 12.5 mg/kg QW, I.P.), administered over a 21 day cycle, either alone or in combination (8 animals per group in double combination studies; 10 animals per group in triple combination study). In combination arms, Compound of formula (I) was administered 2 hours prior to chemotherapy. Tumor growth was monitored twice weekly by caliper measurement and tumor volume calculated using the equation V=(L×W×W)/2, where V is tumor volume, L is tumor length (the longest tumor dimension) and W is tumor width (the longest tumor dimension perpendicular to L). During routine monitoring, the animals were checked for any effects of tumor growth and treatments on behavior such as mobility, food and water consumption, body weight gain/loss 3 times a week, eye/hair matting and any other abnormalities. Mortality and observed clinical signs were recorded for individual animals."}, "[4]": {"test_system": "NCI-H1048 SCLC tumor cells", "test": "NCI-H1048 cell line-derived xenograft (CDX) model, tumor growth inhibition", "type": "in vivo, Balb/c nude mice", "experimental": "as §2"}, "[5]": {"test": "SC6 PDX model, tolerability (body weight)", "type": "in vivo", "conditions": "in combination with etoposide", "experimental": "(§3) Female athymic nude mice were inoculated subcutaneously with tumor fragments from SC6 PDX tumors. Animals were randomized when tumor volume reached approximately 60-200 mm^3. Animals were treated with vehicle (0.5% methycellulose, 1% Tween 80 P.O. and saline I.V.), Compound of formula (I) formulated as a suspension in 0.5% methycellulose and 1% Tween 80 (30 mg/kg QD, P.O.), Carboplatin (25 mg/kg QW, I.P.) or etoposide (6 mg/kg QD [3 d on/4 d off], I.P.), administered over a 21 day cycle either alone or in combination (7 animals per group). In combination arms, Compound of formula (I) was administered 2 hours prior to chemotherapy. Tumor growth was monitored twice weekly by caliper measurement and tumor volume calculated using the equation V=(L×W×W)/2, where V is tumor volume, L is tumor length (the longest tumor dimension) and W is tumor width (the longest tumor dimension perpendicular to L). During routine monitoring, the animals were checked for any effects of tumor growth and treatments on behavior such as mobility, food and water consumption, body weight gain/loss 3 times a week, eye/hair matting and any other abnormalities. Mortality and observed clinical signs were recorded for individual animals."}, "SC6 PDX tumors": {"test_system": "SC6 PDX tumors", "test": "SC6 patient derived xenograft (PDX) model, tumor growth inhibition", "type": "in vivo, athymic nude mice", "conditions": "for tumor growth inhibition (TGI): 30 mg/kg QD P.O. in combination with etoposide 6 mg/kg QD [3 d on/4 d off] I.P., compared to vehicle control", "experimental": "as §3"}, "SCLC": {"test_system": "SCLC", "conditions": "SCLC patients; in combination with olaparib, or with carboplatin in platinum-refractory SCLC (BALTIC study, Arm B, NCT02937818); preliminary data; cited from earlier work"}, "[6]": {"conditions": "triple combination with carboplatin and etoposide"}},
  "data": [
    {"smiles": "N.N.O=C([O-])C1(C(=O)[O-])CCC1.[Pt+2]", "note": "[carboplatin, reference compound]", "values": [
      {"measurement": "TGI effects compared to vehicle", "setting": "[1]", "value": "no significant TGI effects"}
    ]},
    {"smiles": "Cc1cc(Nc2ncc3c(n2)N(C)CN(c2c(Cl)cccc2Cl)C3=O)ccc1C1CCN(C)CC1", "note": "[Compound of formula (I)]", "values": [
      {"measurement": "body weight loss", "setting": "[2]", "value": "No significant body weight loss"},
      {"measurement": "synergistic antitumor activity (Bliss synergy)", "setting": "NCI-H446 tumor cells", "value": "strong synergistic antitumor activity"},
      {"measurement": "IC50", "setting": "SCLC organoids; 120 h, monotherapy, 5 days, in 12 out of 16 SCLC organoids", "value": "< 1500", "unit": "nM"},
      {"measurement": "inhibition at 1.5 µM", "setting": "SCLC organoids; monotherapy, at 1.5 uM (highest dose tested), in 12 out of 16 SCLC organoids, read-out: maximum inhibition rate (cell death rate)", "value": "> 60", "unit": "%"},
      {"measurement": "bliss synergy score", "setting": "SCLC organoids; 5 days, in 5 of these models (FIG. 8), highly significant", "value": "> 10"},
      {"measurement": "bliss synergy score", "setting": "SCLC organoids; 5 days, in 9 out of 16 SCLC organoid models", "value": "> 5"},
      {"measurement": "body weight loss", "setting": "[3]; in combination with carboplatin 50 mg/kg QW I.V.", "value": "No significant body weight loss"},
      {"measurement": "body weight loss", "setting": "[3]; in combination with etoposide QW I.P.", "value": "No significant body weight loss"},
      {"measurement": "body weight loss", "setting": "[3]; monotherapy 30 mg/kg QD P.O., 21 day cycle", "value": "No significant body weight loss"},
      {"measurement": "body weight loss", "setting": "[3]; [6]", "value": "No significant body weight loss"},
      {"measurement": "tolerability", "setting": "[3]; [6]", "value": "well tolerated"},
      {"measurement": "tumor growth inhibition (TGI)", "setting": "[4]; 30 mg/kg QD P.O. in combination with carboplatin 50 mg/kg QW I.V., 21 day cycle, vs vehicle controls, p=0.0026", "value": "about 68%"},
      {"measurement": "tumor growth inhibition (TGI)", "setting": "[4]; 30 mg/kg QD P.O. in combination with etoposide (25 mg/kg or 12.5 mg/kg QW I.P.), 21 day cycle, vs vehicle controls, p=0.00015", "value": "~78", "unit": "%"},
      {"measurement": "tumor growth inhibition (TGI)", "setting": "[4]; monotherapy 30 mg/kg QD P.O., 21 day cycle, vs vehicle, p=0.016", "value": "up to 54%"},
      {"measurement": "tumor growth inhibition (TGI)", "setting": "[4]; triple combination with carboplatin (50 mg/kg) and etoposide (12.5 mg/kg), compared to carboplatin and etoposide combination, p=0.0043", "value": 44, "unit": "%"},
      {"measurement": "tumor growth inhibition (TGI)", "setting": "[4]; triple combination with carboplatin (50 mg/kg) and etoposide (12.5 mg/kg), compared to vehicle controls, p<0.0001", "value": 72, "unit": "%"},
      {"measurement": "tumor response", "setting": "[4]; triple combination with carboplatin and etoposide, compared to carboplatin and etoposide treatments alone or to the double combination", "value": "significantly improved tumor response"},
      {"measurement": "tumor growth inhibition (TGI)", "setting": "[1]; 30 mg/kg QD 3 consecutive days a week P.O. in combination with carboplatin 50 mg/kg QW I.V., compared to vehicle, p=0.028", "value": 67, "unit": "%"},
      {"measurement": "TGI effects compared to vehicle", "setting": "[1]", "value": "no significant TGI effects"},
      {"measurement": "tolerability", "setting": "[5]", "value": "well tolerated"},
      {"measurement": "body weight loss", "setting": "[5]; immediately following treatment, all animals recovered quickly", "value": "some transient body weight losses"},
      {"measurement": "tumor growth inhibition (TGI)", "setting": "SC6 PDX tumors; day 7", "value": 34, "unit": "%"},
      {"measurement": "tumor growth inhibition (TGI)", "setting": "SC6 PDX tumors; day 11, p=0.012", "value": 61, "unit": "%"},
      {"measurement": "mice remaining below the maximum tumor volume ethical criteria at end of treatment", "setting": "SC6 PDX tumors; in combination with etoposide, end of treatment (21 days), 7 animals per group", "value": "4/7"}
    ]},
    {"smiles": "C=CCn1c(=O)c2cnc(Nc3ccc(N4CCN(C)CC4)cc3)nc2n1-c1cccc(C(C)(C)O)n1", "note": "[adavosertib]", "values": [
      {"measurement": "antitumor activity", "setting": "SCLC", "value": "limited antitumor activity"}
    ]}
  ]
}
